Laboratory results reported in patent publication US20240228504A1, “SUBSTITUTED TRICYCLIC AMIDES, ANALOGUES THEREOF, AND METHODS USING SAME” (Arbutus Biopharma Corporation, priority 2020, published 2024).

System: HBV rcDNA in HepDE19 cells
Test: HepDE19 assay with bDNA quantitation of HBV rcDNA
Type: cell-based, hepatitis B virus
Details: HepDE19 assay, inhibition of rcDNA formation, bDNA quantitation; read-out: DE-19bDNA EC50

Row | SMILES | EC50 [µM]
1 | CN(C(=O)c1cc2c(C(F)F)cccc2[nH]1)C1CNCc2[nH]c(=O)c3cc(F)c(F)cc3c21 (single isomer, unassigned) [Compound 208, N-(8,9-Difluoro-6-oxo-1,2,3,4,5,6-hexahydrobenzo[c][1,7]naphthyridin-1-yl)-4-(difluoromethyl)-N-methyl-1H-indole-2-carboxamide] | 0.03
2 | CN(C(=O)c1cc2cc(F)c(F)cc2[nH]1)C1COCc2[nH]c(=O)c3cc(F)ccc3c21 (single isomer, unassigned) [Compound 50, 5,6-Difluoro-N-(8-fluoro-6-oxo-1,4,5,6-tetrahydro-2H-pyrano[3,4-c]isoquinolin-1-yl)-N-methyl-1H-indole-2-carboxamide] | 0.01
3 | CN(C(=O)c1cc2ccc(Cl)cn2c1)C1CNCc2[nH]c(=O)c3cc(F)c(F)cc3c21 (single isomer, unassigned) [Compound 121, 6-Chloro-N-(8,9-difluoro-6-oxo-1,2,3,4,5,6-hexahydrobenzo[c][1,7]naphthyridin-1-yl)-N-methylindolizine-2-carboxamide] | 0.03
4 | CN(C(=O)c1ccc2cccn2c1)C1COCc2[nH]c(=O)c3cc(F)ccc3c21 (single isomer, unassigned) [Compound 389, N-(8-Fluoro-6-oxo-1,4,5,6-tetrahydro-2H-pyrano[3,4-c]isoquinolin-1-yl)-N-methylindolizine-6-carboxamide] | 17
5 | CN(C(=O)c1cc2c(F)cccn2c1)C1CNCc2[nH]c(=O)c3cc(F)c(F)cc3c21 (single isomer, unassigned) [Compound 160, N-(8,9-Difluoro-6-oxo-1,2,3,4,5,6-hexahydrobenzo[c][1,7]naphthyridin-1-yl)-8-fluoro-N-methylindolizine-2-carboxamide] | 16.2
6 | CN(C(=O)C1Nc2ccccc2C1(C)C)C1COCc2[nH]c(=O)c3cc(F)c(F)cc3c21 (stereo not shown) [Compound 59, N-(8,9-Difluoro-6-oxo-1,4,5,6-tetrahydro-2H-pyrano[3,4-c]isoquinolin-1-yl)-N,3,3-trimethylindoline-2-carboxamide] | 22
7 | CN(C(=O)c1cc2c(Cl)cccn2c1)C1CNCc2[nH]c(=O)c3cc(F)c(F)cc3c21 (single isomer, unassigned) [Compound 508, 8-Chloro-N-(8,9-Difluoro-6-oxo-1,2,3,4,5,6-hexahydrobenzo[c][1,7]naphthyridin-1-yl)-N-methylindolizine-2-carboxamide] | 11.6
8 | CN(C(=O)c1cc2c(C#N)cc(F)cc2[nH]1)C1CNCc2[nH]c(=O)c3cc(F)c(F)cc3c21 (single isomer, unassigned) [Compound 400, 4-Cyano-N-(8,9-difluoro-6-oxo-1,2,3,4,5,6-hexahydrobenzo[c][1,7]naphthyridin-1-yl)-6-fluoro-N-methyl-1H-indole-2-carboxamide] | 0.09

Same assay, conditions: Hepatitis B virus, HepDE19, HepDE19 assay, inhibition of rcDNA formation, bDNA quantitation; read-out: DE-19bDNA EC50

Row | SMILES | EC50 [µM]
9 | CN(C(=O)c1cccc(Oc2ccc(F)cc2)c1)[C@@H]1COCc2[nH]c(=O)c3cc(F)c(F)cc3c21 [Compound 293, (S)-N-(8,9-Difluoro-6-oxo-1,4,5,6-tetrahydro-2H-pyrano[3,4-c]isoquinolin-1-yl)-3-(4-fluorophenoxy)-N-methylbenzamide] | 7.6
10 | [2H][C@@]1(N(C(=O)c2cc3cc(F)c(F)cc3[nH]2)[13C]([2H])([2H])[2H])COCc2[nH]c(=O)c3cc(F)c(F)cc3c21 [Compound 514, (S)-N-(8,9-Difluoro-6-oxo-1,4,5,6-tetrahydro-2H-pyrano[3,4-c]isoquinolin-1-yl-1-d)-5,6-difluoro-N-(methyl-^13C-d3)-1H-indole-2-carboxamide] | 0.008
11 | CN(C(=O)c1cc2sc(C#N)cc2[nH]1)[C@@H]1COCc2[nH]c(=O)c3cc(F)c(F)cc3c21 [Compound 468] | 0.005
12 | CN(C(=O)c1c[nH]c(=O)c(C(F)(F)F)c1)[C@@H]1COCc2[nH]c(=O)c3cc(F)c(F)cc3c21 [Compound 193, (S)-N-(8,9-Difluoro-6-oxo-1,4,5,6-tetrahydro-2H-pyrano[3,4-c]isoquinolin-1-yl)-N-methyl-6-oxo-5-(trifluoromethyl)-1,6-dihydropyridine-3-carboxamide] | 3.2
13 | CN(C(=O)c1cc(-c2ccc(F)cc2)on1)[C@@H]1COCc2[nH]c(=O)c3cc(F)c(F)cc3c21 [Compound 263, (S)-N-(8,9-Difluoro-6-oxo-1,4,5,6-tetrahydro-2H-pyrano[3,4-c]isoquinolin-1-yl)-5-(4-fluorophenyl)-N-methylisoxazole-3-carboxamide] | 14.7
14 | CN(C(=O)c1cc2cc(S(C)(=O)=O)ccc2[nH]1)[C@@H]1COCc2[nH]c(=O)c3cc(F)c(F)cc3c21 [Compound 346, (S)-N-(8,9-Difluoro-6-oxo-1,4,5,6-tetrahydro-2H-pyrano[3,4-c]isoquinolin-1-yl)-N-methyl-5-(methylsulfonyl)-1H-indole-2-carboxamide] | 6.7
15 | CN(C(=O)C(N)c1ccc(Cl)cc1)[C@@H]1COCc2[nH]c(=O)c3cc(F)c(F)cc3c21 (single isomer, unassigned) [Compound 199] | 14.7
16 | Cc1ccc(C(=O)N(C)[C@@H]2COCc3[nH]c(=O)c4cc(F)c(F)cc4c32)cc1F [Compound 137, (S)-N-(8,9-Difluoro-6-oxo-1,4,5,6-tetrahydro-2H-pyrano[3,4-c]isoquinolin-1-yl)-3-fluoro-N,4-dimethylbenzamide] | 0.06
17 | CC(C)C(=O)OC1OC[C@@H](N(C)C(=O)c2cc3cc(F)c(F)cc3[nH]2)c2c1[nH]c(=O)c1cc(F)c(F)cc21 (stereo partly drawn) [Compound 300, (1S)-1-(5,6-Difluoro-N-methyl-1H-indole-2-carboxamido)-8,9-difluoro-6-oxo-1,4,5,6-tetrahydro-2H-pyrano[3,4-c]isoquinolin-4-yl isobutyrate] | 0.01
18 | CN(C(=O)c1c[nH]c(=O)c(F)c1)[C@@H]1COCc2[nH]c(=O)c3cc(F)c(F)cc3c21 [Compound 226, (S)-N-(8,9-Difluoro-6-oxo-1,4,5,6-tetrahydro-2H-pyrano[3,4-c]isoquinolin-1-yl)-5-fluoro-N-methyl-6-oxo-1,6-dihydropyridine-3-carboxamide] | 12.5
19 | CN(C(=O)c1ccc2nc[nH]c2c1)[C@@H]1COCc2[nH]c(=O)c3cc(F)c(F)cc3c21 [Compound 451, (S)-N-(8,9-difluoro-6-oxo-1,4,5,6-tetrahydro-2H-pyrano[3,4-c]isoquinolin-1-yl)-N-methyl-1H-benzo[d]imidazole-6-carboxamide] | 12.3
20 | CN(C(=O)c1ccc(Cl)c(=O)[nH]1)[C@@H]1COCc2[nH]c(=O)c3cc(F)c(F)cc3c21 [Compound 201, (S)-5-Chloro-N-(8,9-difluoro-6-oxo-1,4,5,6-tetrahydro-2H-pyrano[3,4-c]isoquinolin-1-yl)-N-methyl-6-oxo-1,6-dihydropyridine-2-carboxamide] | 10
21 | CN(C(=O)c1cc2cc(F)c(F)cc2[nH]1)[C@@H]1COCc2[nH]c(=O)c3cc(F)c(F)cc3c21 [Compound 42, (S)-N-(8,9-difluoro-6-oxo-1,4,5,6-tetrahydro-2H-pyrano[3,4-c]isoquinolin-1-yl)-5,6-difluoro-N-methyl-1H-indole-2-carboxamide] | 0.005
22 | CN(C(=O)c1ccc(OC(F)(F)F)c(F)c1)[C@@H]1COCc2[nH]c(=O)c3cc(F)c(F)cc3c21 [Compound 136, (S)-N-(8,9-Difluoro-6-oxo-1,4,5,6-tetrahydro-2H-pyrano[3,4-c]isoquinolin-1-yl)-3-fluoro-N-methyl-4-(trifluoromethoxy)benzamide] | 0.04
